Among the data in ChEMBL document CHEMBL3822379, “Development of novel 1,4-benzodiazepine-based Michael acceptors as antitrypanosomal agents” (Bioorg Med Chem Lett, 2016) are inhibition, IC50 and CC50 values, retold here.

Data set [1] addresses Rhodesain (Trypanosoma brucei rhodesiense) (UniProt Q95PM0). The data set is described as follows: Inhibition of Trypanosoma brucei rhodesiense rhodesain expressed in Pichia pastoris X33 at 100 uM using Cbz-Phe-Arg-AMC as substrate measured over 10 mins by fluorescence microplate reader analysis.
Data set [2] deals with Trypanosoma brucei brucei. Briefly: Antitrypanosomal activity against trypomastigote form of Trypanosoma brucei brucei TC 221 after 24 hrs by alamar blue assay. The data set is classed as functional, organism-based. The settings on record: TC 221, 24 h.
Data set [3] is described as follows: Cytotoxicity against mouse J774.1 cells incubated for 24 hrs by alamar blue assay. Format: cell-based. The settings on record: read-out: TC50.

Rhodesain (Trypanosoma brucei rhodesiense), sequence (Q95PM0 1-450): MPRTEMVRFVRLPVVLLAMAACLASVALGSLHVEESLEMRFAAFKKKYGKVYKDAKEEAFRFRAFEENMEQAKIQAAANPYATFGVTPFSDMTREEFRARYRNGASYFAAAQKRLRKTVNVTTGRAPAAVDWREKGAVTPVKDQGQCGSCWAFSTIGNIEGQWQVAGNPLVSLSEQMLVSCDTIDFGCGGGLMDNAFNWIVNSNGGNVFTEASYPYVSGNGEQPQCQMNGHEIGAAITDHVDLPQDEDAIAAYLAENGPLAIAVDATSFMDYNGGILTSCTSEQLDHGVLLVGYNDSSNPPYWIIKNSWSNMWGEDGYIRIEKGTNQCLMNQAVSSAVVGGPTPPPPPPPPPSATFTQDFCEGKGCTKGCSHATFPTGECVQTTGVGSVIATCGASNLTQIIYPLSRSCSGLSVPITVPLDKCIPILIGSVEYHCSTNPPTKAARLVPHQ

Molecule `N#C/C=C\CCN1C(=O)CN=C(c2ccccc2)c2ccccc21` displayed an inhibition in data set [1] of 27%. The concentration for half-maximal inhibition (IC50) in data set [2] is above 40 µM.

In data set [1], `COC(=O)/C=C/CCCN1C(=O)CN=C(c2ccccc2)c2ccccc21` showed an inhibition of 27%. In data set [2], this molecule displayed an IC50 of 23.5 µM.

On to `COC(=O)/C=C/CCCCN1C(=O)CN=C(c2ccccc2)c2ccccc21`, for which the inhibition in data set [1] came to 27%. This molecule also returned an IC50 in data set [2] of 15.9 µM.

The molecule `N#C/C=C\CCCN1C(=O)CN=C(c2ccccc2)c2ccccc21` showed an inhibition in data set [1] of 27%. The IC50 in data set [2] is above 40 µM.

`COC(=O)/C=C/CNC(=O)CN1C(=O)[C@@H](COC(=O)NC23CC4CC(CC(C4)C2)C3)N=C(c2ccccc2)c2ccccc21` returned an IC50 in data set [2] of 4.8 µM.

Turning to `CC(=O)/C=C/CCCN1C(=O)CN=C(c2ccccc2)c2ccccc21`, the inhibition in data set [1] turned out to be 27%. The molecule further came in with an IC50 in data set [2] of 4.6 µM. Moreover, the CC50 at 24 h in data set [3] was 31.8 µM.

Turning to `COC(=O)/C=C\CCN1C(=O)CN=C(c2ccccc2)c2ccccc21`, in data set [1], the inhibition stood at 27%. The IC50 in data set [2] was above 40 µM.

As to `CC(=O)/C=C/CCN1C(=O)CN=C(c2ccccc2)c2ccccc21`, the inhibition in data set [1] is 27%. In addition, in data set [2], the IC50 is 5.3 µM. Also, in data set [3], the CC50 at 24 h was above 100 µM.

Molecule `CC(=O)/C=C/CCCCN1C(=O)CN=C(c2ccccc2)c2ccccc21` came in with an inhibition in data set [1] of 27%. The molecule also returned an IC50 in data set [2] of 13.1 µM.

With `N#C/C=C\CCCCN1C(=O)CN=C(c2ccccc2)c2ccccc21`, the inhibition in data set [1] came to 27%. Moreover, the IC50 in data set [2] stood at 14.5 µM.
